Assay results: patent EP1094711B1, “METHODS FOR ERADICATION OF NANOBACTERIA” (Nanobac Oy, priority 1998, dated 2000)
Structures can show the parent of a compound that is named as a salt.

Key:
nanobacteria [1] = test: Antibiotic sensitivity test by Minimal Inhibition Concentration (MIC), 96-well plates, absorbance at 650 nm; type: cell-based; details: for MIC 50: 50% inhibition; for MIC 50 / MIC 90: DMEM with 10% gamma-irradiated FBS; for antinanobacterial effect in the in vitro test (in words): in vitro MIC test
Description: Antibiotic sensitivity tests were carried out by measuring Minimal Inhibition Concentration (MIC), a common practice in clinical microbiology.
The tests were performed in 96-well plates. DMEM (commercial cell culture medium) containing 10% gamma-irradiated fetal bovine serum (FBS)(dose about 3 Mrads; this treatment inactivates nanobacteria in the serum so that the basic medium is sterile) was used as the basic culture medium. These components are commercially available, e.g., from Gibco. The antibiotic stock solutions were sterile filtered through 0.2 micrometer filters. The stock solutions were then serially diluted (into the basal culture medium) to provide a final starting concentration of 0.5 mg/ml and 1:2 dilutions therefrom, unless otherwise specified. For each antibiotic three parallel tests were performed using all the antibiotic dilutions and, additionally, positive and negative control experiments. […] 100 µl of dilutions of the nanobacteria inoculum were added to all wells except the negative controls. The plates were incubated at mammalian cell culture conditions (37° Celsius, 5% carbon dioxide, 95% humid air). The absorbance values at 650 nm were recorded by using an ELISA reader at the start, and at 4, 8, 12, 14 days. […] Calculations were based on absorbance curves where absorbance was plotted against concentration of the antibiotic.

nanobacteria [2] = test: as above; type: cell-based; details: culture medium, 37° Celsius
nanobacteria [3] = test: Treatment of human patients infected with nanobacteria; details: person with chronic fatigue syndrome; 500 mg 4 times per day for one month; after one month therapy
nanobacteria [4] = test: Nanobacterial growth and biofilm formation on stents with metal ions in the culture medium; type: cell-based; details: salts added to the culture medium
From the text: Nanobacteria also absorb some heavy metals. Nanobacteria can be stained well with silver or copper compounds. […] Silver and copper parts or platings on surfaces, such as catheters or stents, can provide an antinanobacterial effect by preventing nanobacterial biofilm formation. In in vitro tests nanobacteria avidly formed biofilm on two different commercial stents made of a plastic type of material. This biofilm formation was prevented by the addition of silver or copper salts to the culture medium.

serum nanobacteria = test: Antibiotic sensitivity test of serum nanobacteria with cell culture antibiotics; type: cell-based; details: 100 µg/ml, one month, medium containing 10% fetal bovine serum
Description: Nanobacteria were cultured with 10% fetal bovine serum in DMEM medium (serum nanobacteria) for one month at 37°C in an atmosphere of 5% CO2 - 95% air. The cultures were harvested by centrifugation. For the autoclaving, UV, microwave, heating and drying treatments, the harvested nanobacteria were suspended in phosphate buffered saline (pH 7.4; PBS). After treatments, subculturing of the nanobacteria was made in 10% gamma irradiated fetal bovine serum in DMEM medium. The growth of serum nanobacteria was followed by light microscopy and absorbance measurement with a spectrophotometer at 650 nm.
The 1× concentrations are those recommended for cell culture. […]

nanobacteria [5] = details: Kajander et al. 1997; cited from earlier work
[6] = 90% inhibition, 12 day time point

Row | Compound | MIC 50 (nanobacteria [1]; 12 day time point) | MIC 90 (nanobacteria [1]; [6]) | antinanobacterial effect in the in vitro test (in words) (nanobacteria [1]) | also measured
1 | Doxycycline | 50 µg/mL | 80 µg/mL | effective on inhibiting nanobacterial growth | stability under the test conditions (nanobacteria [2]): not stable
2 | CN(C)[C@@H]1C(O)=C(C(N)=O)C(=O)[C@@]2(O)C(O)=C3C(=O)c4c(O)cccc4[C@@](C)(O)[C@H]3C[C@@H]12 [tetracycline HCl] | – | – | – | nanobacteria status of the patient (urine and serum samples) (nanobacteria [3]): nanobacteria negative
3 | silver | – | – | – | biofilm formation on commercial stents (nanobacteria [4]): prevented
4 | Gentamycin | 60 µg/mL | 250 µg/mL | bacteriostatic effects at high antibiotic concentrations | morphology of nanobacteria in SEM (serum nanobacteria): changes in the morphology
5 | O=C(O)CN(CCN(CC(=O)O)CC(=O)O)CC(=O)O [EDTA, ethylenediaminetetraacetic acid] | – | – | antinanobacterial effects | effect on growth of nanobacteria (nanobacteria [5]): inhibts growth; IC90 (nanobacteria [1]; 288 h, 90% inhibition, 12 day time point, read-out: MIC 90): 2.5 mM; IC50 (nanobacteria [1]; 288 h, read-out: MIC 50): 0.3 mM
